Results: patent publication US20250313548A1 (Actio Biosciences, Inc., priority 2023, published 2025)

Target: human, KCNT1 (Homo sapiens (Human), UniProt Q5JUK3)
Experiment: FLIPR Tl/K Flux Assay
Format: cell-based
Settings: HEK293 cells stably expressing human KCNT1; Tl+ flux stimulated with EC80 of agonist Loxapine
Summary of the method: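 Inhibition values come from a Hill-equation fit of % inhibition versus log concentration, using normalized fluorescence (Fmax/Fmin) over a 160 s read. The read followed stimulation with Tl+ plus EC80 agonist loxapine after 30 min compound pre-incubation at 25 °C. Cells were KCNT1-expressing HEK293, dye-loaded 1 h in pH 7.4 HEPES/HBSS with 5 mM probenecid.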

human, KCNT1, sequence (Q5JUK3 whole entry): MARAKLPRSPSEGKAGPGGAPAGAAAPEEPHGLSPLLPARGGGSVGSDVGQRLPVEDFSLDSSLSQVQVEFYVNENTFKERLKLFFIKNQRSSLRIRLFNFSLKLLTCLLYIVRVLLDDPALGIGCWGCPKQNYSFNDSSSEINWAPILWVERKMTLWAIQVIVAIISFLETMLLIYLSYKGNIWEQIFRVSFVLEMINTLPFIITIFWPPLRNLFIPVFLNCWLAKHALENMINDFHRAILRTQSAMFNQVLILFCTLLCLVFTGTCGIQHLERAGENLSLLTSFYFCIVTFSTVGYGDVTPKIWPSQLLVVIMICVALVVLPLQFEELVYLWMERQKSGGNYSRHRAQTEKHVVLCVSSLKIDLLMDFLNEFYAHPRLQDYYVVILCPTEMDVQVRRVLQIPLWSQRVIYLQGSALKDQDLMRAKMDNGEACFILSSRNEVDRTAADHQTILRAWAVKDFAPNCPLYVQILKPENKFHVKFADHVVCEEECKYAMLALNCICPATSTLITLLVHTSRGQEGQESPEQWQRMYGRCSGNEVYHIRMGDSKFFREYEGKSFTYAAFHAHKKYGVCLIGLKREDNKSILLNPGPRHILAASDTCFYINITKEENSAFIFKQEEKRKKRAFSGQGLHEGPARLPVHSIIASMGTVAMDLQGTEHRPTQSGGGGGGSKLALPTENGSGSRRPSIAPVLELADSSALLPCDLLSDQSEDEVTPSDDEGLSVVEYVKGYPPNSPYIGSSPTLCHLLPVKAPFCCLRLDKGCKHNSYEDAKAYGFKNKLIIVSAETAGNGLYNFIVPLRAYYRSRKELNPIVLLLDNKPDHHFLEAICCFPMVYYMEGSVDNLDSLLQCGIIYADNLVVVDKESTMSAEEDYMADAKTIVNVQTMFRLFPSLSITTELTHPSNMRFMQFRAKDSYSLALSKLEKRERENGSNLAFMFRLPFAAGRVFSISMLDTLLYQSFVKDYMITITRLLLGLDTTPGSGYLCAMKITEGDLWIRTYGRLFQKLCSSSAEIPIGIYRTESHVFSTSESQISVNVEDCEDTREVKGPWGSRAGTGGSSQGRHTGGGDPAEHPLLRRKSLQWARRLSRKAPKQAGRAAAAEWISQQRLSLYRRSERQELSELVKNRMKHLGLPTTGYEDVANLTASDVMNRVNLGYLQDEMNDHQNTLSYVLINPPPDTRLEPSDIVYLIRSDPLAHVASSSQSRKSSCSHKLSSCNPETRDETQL

| SMILES | IC50 [nM] |
| --- | --- |
| Cc1cnc(C(F)(F)F)cc1-c1cc2n(n1)CC[C@@H]2NC(=O)c1cc(C(F)(F)F)nn1C [Compound I-236a, (S)-1-Methyl-N-(2-(5-methyl-2-(trifluoromethyl)pyridin-4-yl)-5,6-dihydro-4H-pyrrolo[1,2-b]pyrazol-4-yl)-3-(trifluoromethyl)-1H-pyrazole-5-carboxamide] | < 250 |
| COc1cc(-c2cc3n(n2)CC[C@@H]3NC(=O)c2nc(C(F)(F)F)nn2C)ccn1 [Compound I-237a, (S)-N-(2-(2-Methoxypyridin-4-yl)-5,6-dihydro-4H-pyrrolo[1,2-b]pyrazol-4-yl)-1-methyl-3-(trifluoromethyl)-1H-1,2,4-triazole-5-carboxamide] | < 250 |
| O=C(N[C@H]1CCCc2oc(-c3ccnc(C4CC4)c3)nc21)c1cccc(C(F)(F)F)c1 [Compound I-238a, (S)-N-(2-(2-Cyclopropylpyridin-4-yl)-4,5,6,7-tetrahydrobenzo[d]oxazol-4-yl)-3-(trifluoromethyl)benzamide] | < 250 |
| COc1cc(-c2cc3n(n2)CCC[C@@H]3NC(=O)c2cccc(C#N)c2)c(Cl)cn1 [Compound I-239a, (S)-N-(2-(5-Chloro-2-methoxypyridin-4-yl)-4,5,6,7-tetrahydropyrazolo[1,5-a]pyridin-4-yl)-3-cyanobenzamide] | < 250 |
| COc1cc(-c2cc3n(n2)CC[C@@H]3NC(=O)c2cn(C(F)(F)F)nc2C)ccn1 [Compound I-240a, (S)-N-(2-(2-Methoxypyridin-4-yl)-5,6-dihydro-4H-pyrrolo[1,2-b]pyrazol-4-yl)-3-methyl-1-(trifluoromethyl)-1H-pyrazole-4-carboxamide] | < 250 |
| Cn1nc(C(F)(F)F)nc1C(=O)N[C@H]1CCCc2oc(-c3ccnc(C(F)(F)F)c3)nc21 [Compound I-241a, (S)-1-Methyl-3-(trifluoromethyl)-N-(2-(2-(trifluoromethyl)pyridin-4-yl)-4,5,6,7-tetrahydrobenzo[d]oxazol-4-yl)-1H-1,2,4-triazole-5-carboxamide] | < 250 |
| Cc1cc(C(=O)N[C@H]2CCCc3oc(-c4ccnc(C5CC5)c4)nc32)cc(C(F)(F)F)c1 [Compound I-242a, (S)-N-(2-(2-Cyclopropylpyridin-4-yl)-4,5,6,7-tetrahydrobenzo[d]oxazol-4-yl)-3-methyl-5-(trifluoromethyl)benzamide] | < 250 |
| COc1cc(-c2cc3n(n2)CC[C@@H]3NC(=O)c2cc(C(F)(F)F)nn2C)c(F)cn1 [Compound I-243a, (S)-N-(2-(5-Fluoro-2-methoxypyridin-4-yl)-5,6-dihydro-4H-pyrrolo[1,2-b]pyrazol-4-yl)-1-methyl-3-(trifluoromethyl)-1H-pyrazole-5-carboxamide] | < 250 |
| CCc1cc(C#N)cc(C(=O)N[C@H]2CCCCn3nc(-c4ccnc(C(F)(F)F)c4)cc32)c1 [Compound I-244a, (S)-3-Cyano-5-ethyl-N-(2-(2-(trifluoromethyl)pyridin-4-yl)-5,6,7,8-tetrahydro-4H-pyrazolo[1,5-a]azepin-4-yl)benzamide] | < 250 |
| CCc1cc(C#N)cc(C(=O)N[C@H]2CCCn3nc(-c4ccnc(C(F)(F)F)c4)cc32)c1 [Compound I-245a, (S)-3-Cyano-5-ethyl-N-(2-(2-(trifluoromethyl)pyridin-4-yl)-4,5,6,7-tetrahydropyrazolo[1,5-a]pyridin-4-yl)benzamide] | < 250 |
| CCc1cc(C#N)cc(C(=O)N[C@H]2CCc3nn(-c4ccnc(C(F)(F)F)c4)cc32)c1 [Compound I-246a, (S)-3-Cyano-5-ethyl-N-(2-(2-(trifluoromethyl)pyridin-4-yl)-2,4,5,6-tetrahydrocyclopenta[c]pyrazol-4-yl)benzamide] | < 250 |
| Cn1nc(C(F)(F)F)cc1C(=O)N[C@H]1CCCc2c1nc(-c1ccnc(C(F)(F)F)c1)n2C [Compound I-247a, (S)-1-Methyl-N-(1-methyl-2-(2-(trifluoromethyl)pyridin-4-yl)-4,5,6,7-tetrahydro-1H-benzo[d]imidazol-4-yl)-3-(trifluoromethyl)-1H-pyrazole-5-carboxamide] | > 1000 |
| COc1cc(-c2nc3c(o2)CCC[C@@H]3NC(=O)c2cc(C)cc(C(F)(F)F)c2)ccn1 [Compound I-248a] | < 250 |
| COc1cc(-c2nc3c(o2)CCC[C@@H]3NC(=O)c2cccc(C(F)(F)F)c2)ccn1 [Compound I-249a, (S)-N-(2-(2-Methoxypyridin-4-yl)-4,5,6,7-tetrahydrobenzo[d]oxazol-4-yl)-3-(trifluoromethyl)benzamide] | < 250 |
| Cc1cc(C(=O)N[C@H]2CCCc3oc(-c4ccnc(C(F)(F)F)c4)nc32)cc(C(F)(F)F)c1 [Compound I-250a, (S)-3-Methyl-5-(trifluoromethyl)-N-(2-(2-(trifluoromethyl)pyridin-4-yl)-4,5,6,7-tetrahydrobenzo[d]oxazol-4-yl)benzamide] | < 250 |
| O=C(N[C@H]1CCCc2oc(-c3ccnc(C(F)(F)F)c3)nc21)c1cccc(C(F)(F)F)c1 [Compound I-251a, (S)-3-(Trifluoromethyl)-N-(2-(2-(trifluoromethyl)pyridin-4-yl)-4,5,6,7-tetrahydrobenzo[d]oxazol-4-yl)benzamide] | < 250 |
| CCOc1cc(-c2cc3n(n2)CCC[C@@H]3NC(=O)c2cc(F)cc(C#N)c2)ccn1 [Compound I-252a, (S)-3-Cyano-N-(2-(2-ethoxypyridin-4-yl)-4,5,6,7-tetrahydropyrazolo[1,5-a]pyridin-4-yl)-5-fluorobenzamide] | < 250 |
| COc1cc(-c2cc3n(n2)CC[C@@H]3NC(=O)c2cc(F)cc(Cl)c2)ccn1 [Compound I-253a, (S)-3-Chloro-5-fluoro-N-(2-(2-methoxypyridin-4-yl)-5,6-dihydro-4H-pyrrolo[1,2-b]pyrazol-4-yl)benzamide] | < 250 |
| CCOc1cc(-c2cc3n(n2)CC[C@@H]3NC(=O)c2cc(C(F)(F)F)nn2C)ccn1 [Compound I-254a, (S)-N-(2-(2-Ethoxypyridin-4-yl)-5,6-dihydro-4H-pyrrolo[1,2-b]pyrazol-4-yl)-1-methyl-3-(trifluoromethyl)-1H-pyrazole-5-carboxamide] | < 250 |
| COc1cc(-c2cc3n(n2)CC[C@@H]3NC(=O)c2cnn(C(F)(F)F)c2)ccn1 [Compound I-255a, (S)-N-(2-(2-Methoxypyridin-4-yl)-5,6-dihydro-4H-pyrrolo[1,2-b]pyrazol-4-yl)-1-(trifluoromethyl)-1H-pyrazole-4-carboxamide] | < 250 |
| COc1cc(-c2cc3n(n2)CCCC[C@@H]3NC(=O)c2ccc(F)c(C#N)c2)ccn1 [Compound I-256a, (S)-3-Cyano-4-fluoro-N-(2-(2-methoxypyridin-4-yl)-5,6,7,8-tetrahydro-4H-pyrazolo[1,5-a]azepin-4-yl)benzamide] | < 250 |
| COc1cc(-c2cc3n(n2)CC[C@@H]3NC(=O)c2ccc(F)c(C#N)c2)ccn1 [Compound I-257a, (S)-3-Cyano-4-fluoro-N-(2-(2-methoxypyridin-4-yl)-5,6-dihydro-4H-pyrrolo[1,2-b]pyrazol-4-yl)benzamide] | < 250 |
| COc1cc(C#N)cc(C(=O)N[C@H]2CCn3nc(-c4ccnc(C(F)(F)F)c4)cc32)c1 [Compound I-258a, (S)-3-Cyano-5-methoxy-N-(2-(2-(trifluoromethyl)pyridin-4-yl)-5,6-dihydro-4H-pyrrolo[1,2-b]pyrazol-4-yl)benzamide] | < 250 |
